In ChEMBL document CHEMBL1127122, “Neurotensin receptor binding and antinociceptive activity for lipophilic N-amido neurotensin(913) analogs” (Bioorg Med Chem Lett, 1993) one finds ED50 and Ki data, which are given here for ten compounds.

Assay [1] relates to Mus musculus. Description: Analgesic activity of i.v. administered compound in fasted male mice at 5 min. interval was determined using phenylquinone writhing assay. The following applies: iv. Type of assay: functional. For orientation: Writhing tests count abdominal constrictions after an irritant is injected.
Assay [2] has as its system Mus musculus. Description: Analgesic activity in fasted male mice in phenylquinone writhing assay 40 min after i.c.v. administration. Type of assay: functional.
For assay [3], the system named is Mus musculus. The experiment in a line: Analgesic activity of i.v. administered compound in fasted male mice at 10 min. interval was determined using phenylquinone writhing assay. Type of assay: functional. As to conditions: iv.
The target of assay [4] is Mu-type opioid receptor (Cavia porcellus, UniProt P97266). Description: Compound was evaluated for binding affinity against mu receptor by opioid receptor binding assay: Inactive.
Chain of Mu-type opioid receptor (P97266 whole entry): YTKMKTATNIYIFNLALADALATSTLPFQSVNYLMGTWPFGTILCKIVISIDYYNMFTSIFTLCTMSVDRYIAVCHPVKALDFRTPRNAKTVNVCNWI
The subject of assay [5] is Mus musculus. The experiment in a line: Analgesic activity in fasted male mice in phenylquinone writhing assay 5 min after i.c.v. administration. Type of assay: functional.
For assay [6], the target named is Kappa-type opioid receptor (Cavia porcellus, UniProt P41144). Description: Compound was evaluated for binding affinity against Opioid receptor kappa 1 by opioid receptor binding assay: Inactive.
Chain of Kappa-type opioid receptor (P41144 whole entry): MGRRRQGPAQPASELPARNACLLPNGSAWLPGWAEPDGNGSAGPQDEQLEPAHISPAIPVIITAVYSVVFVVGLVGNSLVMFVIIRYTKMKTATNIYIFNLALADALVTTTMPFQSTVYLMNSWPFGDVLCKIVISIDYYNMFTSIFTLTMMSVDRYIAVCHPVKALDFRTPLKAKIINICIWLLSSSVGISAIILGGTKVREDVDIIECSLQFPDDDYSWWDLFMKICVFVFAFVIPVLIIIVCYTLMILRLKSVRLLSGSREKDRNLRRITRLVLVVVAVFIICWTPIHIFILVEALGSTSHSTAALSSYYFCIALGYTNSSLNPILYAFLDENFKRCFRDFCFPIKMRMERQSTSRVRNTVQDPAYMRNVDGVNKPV
Assay [7] deals with Mus musculus. Description: Analgesic activity in fasted male mice in phenylquinone writhing assay 10 min after i.c.v. administration. Type of assay: functional.
In assay [8] the target is Neurotensin receptor type 1 (Rattus norvegicus, UniProt P20789). Description: Binding affinity against rat neurotensin receptor.
Chain of Neurotensin receptor type 1 (P20789 whole entry): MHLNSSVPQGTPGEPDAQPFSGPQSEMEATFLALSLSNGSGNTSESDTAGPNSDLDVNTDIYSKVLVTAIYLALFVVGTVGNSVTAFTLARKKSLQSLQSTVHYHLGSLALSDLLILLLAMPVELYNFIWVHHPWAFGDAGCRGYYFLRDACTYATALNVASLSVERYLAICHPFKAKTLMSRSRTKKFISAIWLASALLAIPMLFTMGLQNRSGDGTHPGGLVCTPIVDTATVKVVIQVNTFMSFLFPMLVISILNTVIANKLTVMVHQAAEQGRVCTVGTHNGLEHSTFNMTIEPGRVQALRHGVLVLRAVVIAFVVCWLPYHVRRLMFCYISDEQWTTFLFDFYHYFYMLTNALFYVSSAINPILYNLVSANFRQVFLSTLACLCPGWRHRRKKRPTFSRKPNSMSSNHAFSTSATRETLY

Residues, ends and D or L forms follow the SMILES beside them. *: point of attachment. X1 = O=C(C(F)(F)C(F)(F)C(F)(F)C(F)(F)C(F)(F)C(F)(F)C(F)(F)F)*; Adamantane1carbonyl = O=C(C12CC3CC(CC(C3)C1)C2)*; Benzoyl(4-Ph) = O=C(c1ccc(-c2ccccc2)cc1)*; Benzoyl(4-tBu) = CC(C)(C)c1ccc(C(=O)*)cc1; Butanoyl(3,3-Me2) = CC(C)(C)CC(=O)*; Stearoyl = CCCCCCCCCCCCCCCCCC(=O)*; X3 = O=C1NC2CSC(CCCCC(=O)*)C2N1; X2 = O=C(CC1CCC2CCCC21)*; X4 = O=C(CC1CC2CCC1C2)*

For the compound `CC[C@H](C)[C@H](NC(=O)[C@H](Cc1ccc(O)cc1)NC(=O)[C@@H]1CCCN1C(=O)[C@H](CCCCN)NC(=O)C12CC3CC(CC(C3)C1)C2)C(=O)N[C@@H](CC(C)C)C(=O)O` (Adamantane1carbonyl-KPYIL-OH), the ED50 in assay [1] is 2.2 mg/kg; in assay [2], 0.71 ug mouse-1; in assay [3], 2.8 mg/kg; in assay [5], 0.15 ug mouse-1; in assay [7], 0.22 ug mouse-1. For the same compound, the Ki in assay [4] and in assay [6] was over 10 µM each time.
`CCCCCCCCCCCCCCCCCC(=O)N[C@@H](CCCCN)C(=O)N1CCC[C@H]1C(=O)N[C@@H](Cc1ccc(O)cc1)C(=O)N[C@H](C(=O)N[C@@H](CC(C)C)C(=O)O)[C@@H](C)CC` (Stearoyl-KPYIL-OH) returned a Ki in assay [8] of over 10000 nM.
Still for that read-out and setting: the value for `CC[C@H](C)[C@H](NC(=O)[C@H](Cc1ccc(O)cc1)NC(=O)[C@@H]1CCCN1C(=O)[C@H](CCCCN)NC(=O)C(F)(F)C(F)(F)C(F)(F)C(F)(F)C(F)(F)C(F)(F)C(F)(F)F)C(=O)N[C@@H](CC(C)C)C(=O)O` (X1-KPYIL-OH) was 2100 nM.
On to `CC[C@H](C)[C@H](NC(=O)[C@H](Cc1ccc(O)cc1)NC(=O)[C@@H]1CCCN1C(=O)[C@H](CCCCN)NC(=O)CC1CCC2CCCC21)C(=O)N[C@@H](CC(C)C)C(=O)O` (stereo partly specified) (X2-KPYIL-OH), for which the ED50 is 12 mg/kg in assay [1]; 2.5 ug mouse-1 in assay [2]; 15 mg/kg in assay [3]; 0.1 ug mouse-1 in assay [5]; 0.41 ug mouse-1 in assay [7]. Besides, the affinity in assay [8] corresponds to a Ki of 540 nM.
`CC[C@H](C)[C@H](NC(=O)[C@H](Cc1ccc(O)cc1)NC(=O)[C@@H]1CCCN1C(=O)[C@H](CCCCN)NC(=O)CCCCC1SCC2NC(=O)NC21)C(=O)N[C@@H](CC(C)C)C(=O)O` (stereo partly specified) (X3-KPYIL-OH) registered a Ki in assay [8] of 290 nM.
For the compound `CC[C@H](C)[C@H](NC(=O)[C@H](Cc1ccc(O)cc1)NC(=O)[C@@H]1CCCN1C(=O)[C@H](CCCCN)NC(=O)CC1CC2CCC1C2)C(=O)N[C@@H](CC(C)C)C(=O)O` (stereo partly specified) (X4-KPYIL-OH), the ED50 stood at 24 mg/kg in assay [1]; 2.7 ug mouse-1 in assay [2]; 19 mg/kg in assay [3]; 0.018 ug mouse-1 in assay [5]; 0.29 ug mouse-1 in assay [7]. Affinity in assay [8] was put at a Ki of 1000 nM.
In assay [8], `CC[C@H](C)[C@H](NC(=O)[C@H](Cc1ccc(O)cc1)NC(=O)[C@@H]1CCCN1C(=O)[C@H](CCCCN)NC(=O)c1ccc(-c2ccccc2)cc1)C(=O)N[C@@H](CC(C)C)C(=O)O` ({Benzoyl(4-Ph)}-KPYIL-OH) returned a Ki of 880 nM.
In assay [8], `CC[C@H](C)[C@H](NC(=O)[C@H](Cc1ccc(O)cc1)NC(=O)[C@@H]1CCCN1C(=O)[C@H](CCCCN)NC(=O)c1ccc(C(C)(C)C)cc1)C(=O)N[C@@H](CC(C)C)C(=O)O` ({Benzoyl(4-tBu)}-KPYIL-OH) displayed a Ki of 220 nM.
The same measure, in the same setting: with `CC[C@H](C)[C@H](NC(=O)[C@H](Cc1ccc(O)cc1)NC(=O)[C@@H]1CCCN1C(=O)[C@H](CCCCN)NC(=O)CC(C)(C)C)C(=O)N[C@@H](CC(C)C)C(=O)O` ({Butanoyl(3,3-Me2)}-KPYIL-OH) the figure was 680 nM.
Still for that read-out and setting: the value for Ac-KPYIL-OH was 2100 nM.

By Ki is commonly meant a dissociation constant, usually derived from enzyme kinetics or from competition with a known ligand. The low end stands for a stronger hold on the target, the high end for a looser hold on the target.
